# Laboratory results as given in US20050048011A1, “Skin preparation comprising a tocopherol derivative for external application” (priority 2001, published 2005).
# What was measured:
# [1] = tested on: three dimensional model of human skin tissue (TESTSKIN LSD-d, Toyobo K. K.); experiment: Permeability of three dimensional model of human skin tissue and tocopherol conversion; settings: for level of tocopherol in model skin: 1% solution, 6 hours
# Description: 40 μL of a 1% solution of the below test substances 1) to 7) dissolved or dispersed in Dulbecco's PBS (−) were applied onto the tissue surface of a three dimensional model of human skin tissue (TESTSKIN™ LSD-d, Toyobo K. K.) and were cultured at 37° C. under 5% CO2 for 6 hours. After this, the solutions of the test substances were removed by aspiration and sampling was carried out.
# The sample model skin was washed with Dulbecco's PBS (−) and the tissue surfaces onto which the test substances were applied were punched out with a φ 6 mm punch, and were homogenated in a HEPES buffer solution (pH 7.2), and quantitative analysis of the α-tocopherol and γ-tocopherol were carried out by high speed liquid chromatography. Quantitative analysis of the amount of protein in the model skin was carried out according to the Lowry method. • 1) α-tocopherol dimethylglycine ester hydrochloride • 2) α-tocopherol sarcosine ester hydrochloride • 3) αa-tocopherol glycine ester • 4) γ-tocopherol dimethylglycine ester hydrochloride • 5) γ-tocopherol sarcosine ester hydrochloride • 6) γ-tocopherol glycine ester • 7) tocopherol acetate
# [2] = tested on: skin removed from the back of a hairless mouse; experiment: Evaluation of skin penetrability (α-tocopherol amount in skin); settings: 4 hours at 37° C.; for amount of α-tocopherol in the skin: Dulbecco's MEM containing 0.50 of test substance on epidermis side, not added: 10 nmol/g of skin; for increase of the α-tocopherol amount in treated skin: hairless mouse skin
# [3] = tested on: keratinocytes of normal human epidermis; experiment: Conversion to α-tocopherol in keratinocyte of human epidermis (cell spall solution); settings: 37° C. for 2 hours; for increase of the α-tocopherol amount in cell spall solution: 1 mM; for amount of α-tocopherol liberated in the reaction solution: final concentration 1 mM, not added: lower than detection limit
# Description: The cells were harvested and spalled by freeze-thawing method. To this cell spall solution, 1), 2), 3) or 4) was added to have a final concentration of 1 mM. The resulting solution was kept at 37° C. for 2 hours and then the amount of α-tocopherol liberated in the reaction solution was measured.
# [4] = tested on: skin removed from the back of a hairless mouse; settings: 4 hours at 37° C.; for amount of γ-tocopherol in the skin: Dulbecco's MEM containing 0.50 of test substance on epidermis side, not added: lower than detection limit; for increase of the γ-tocopherol amount in treated skin: hairless mouse skin
# Description: Then, the amount of γ-tocopherol in the skin was measured.
# [5] = tested on: keratinocytes of normal human epidermis; experiment: Conversion to γ-tocopherol in keratinocyte of human epidermis (cell spall solution); settings: 37° C. for 2 hours; for increase of the γ-tocopherol amount in cell spall solution: 1 mM; for amount of γ-tocopherol liberated in the reaction solution: final concentration 1 mM, not added: lower than detection limit
# Description: The cells were harvested and spalled by freeze-thawing method. To this cell spall solution, 1), 2) or 3) was added to have a final concentration of 1 mM. The resulting solution was kept at 37° C. for 2 hours and then the amount of γ-tocopherol liberated in the reaction solution was measured.
# [6] = 40 μL of 1% solution in Dulbecco's PBS (−) on tissue surface, 37° C., 5% CO2, 6 hours
compound,measurement,setting,value
"CC(=O)Oc1c(C)c(C)c2c(c1C)CCC(C)(CCC[C@H](C)CCC[C@H](C)CCCC(C)C)O2 (stereo partly drawn) [Tocopherol acetate, reference compound]",the amount of α-tocopherol in model skin,"[1]; human, 6 h, 1 %",1.0 nmol/mg protein
Cc1c(C)c2c(c(C)c1OC(=O)CN(C)C)CCC(C)(CCCC(C)CCCC(C)CCCC(C)C)O2.Cl (stereo not drawn) [α-Tocopherol dimethylglycine ester hydrochloride],level of tocopherol in model skin,[1],significantly increased
same,the amount of α-tocopherol in model skin,[1]; [6],2.8 nmol/mg protein
same,amount of α-tocopherol in the skin,[2],17 nmol/g of skin
same,increase of the α-tocopherol amount in treated skin,[2],significant increase
same,increase of the α-tocopherol amount in cell spall solution,[3],significant increase
same,amount of α-tocopherol liberated in the reaction solution,[3],6.9 nmol/ml of cell suspension
CNCC(=O)Oc1c(C)c(C)c2c(c1C)CCC(C)(CCCC(C)CCCC(C)CCCC(C)C)O2.Cl (stereo not drawn) [α-Tocopherol sarcosine ester hydrochloride],level of tocopherol in model skin,[1],significantly increased
same,the amount of α-tocopherol in model skin,[1]; [6],3.9 nmol/mg protein
same,amount of α-tocopherol in the skin,[2],20 nmol/g of skin
same,increase of the α-tocopherol amount in treated skin,[2],significant increase
same,increase of the α-tocopherol amount in cell spall solution,[3],significant increase
same,amount of α-tocopherol liberated in the reaction solution,[3],26.9 nmol/ml of cell suspension
"Cc1c(C)c2c(c(C)c1OC(=O)CN)CCC(C)(CCCC(C)CCCC(C)CCCC(C)C)O2 (stereo not drawn) [αa-tocopherol glycine ester, reference compound]",the amount of α-tocopherol in model skin,[1]; [6],1.2 nmol/mg protein
Cc1c(OC(=O)CN(C)C)cc2c(c1C)OC(C)(CCCC(C)CCCC(C)CCCC(C)C)CC2.Cl (stereo not drawn) [γ-Tocopherol dimethylglycine ester hydrochloride],amount of γ-tocopherol in the skin,[4],20 nmol/g of skin
same,increase of the γ-tocopherol amount in treated skin,[4],significant increase
same,level of tocopherol in model skin,[1],significantly increased
same,the amount of γ-tocopherol in model skin,[1]; [6],4.7 nmol/mg protein
same,increase of the γ-tocopherol amount in cell spall solution,[5],significant increase
same,amount of γ-tocopherol liberated in the reaction solution,[5],28.1 nmol/ml of cell suspension
CNCC(=O)Oc1cc2c(c(C)c1C)OC(C)(CCCC(C)CCCC(C)CCCC(C)C)CC2.Cl (stereo not drawn) [γ-Tocopherol sarcosine ester hydrochloride],amount of γ-tocopherol in the skin,[4],2.1 nmol/g of skin
same,increase of the γ-tocopherol amount in treated skin,[4],significant increase
same,level of tocopherol in model skin,[1],significantly increased
same,the amount of γ-tocopherol in model skin,[1]; [6],5.5 nmol/mg protein
same,increase of the γ-tocopherol amount in cell spall solution,[5],significant increase
same,amount of γ-tocopherol liberated in the reaction solution,[5],30.3 nmol/ml of cell suspension
"Cc1c(OC(=O)CN)cc2c(c1C)OC(C)(CCCC(C)CCCC(C)CCCC(C)C)CC2 (stereo not drawn) [γ-tocopherol glycine ester, reference compound]",the amount of γ-tocopherol in model skin,[1]; [6],1.5 nmol/mg protein
